According to patent publication US20090306228A1, “ACTIVE AGENT DELIVERY SYSTEMS AND METHODS FOR PROTECTING AND ADMINISTERING ACTIVE AGENTS” (priority 2000, published 2009):
Values joined by “and” are separate entries in the source; they are usually repeats but may differ in a detail not shown here. Equal entries are not always repeated.

Key:
[1] = In vivo performance of polyserine-naltrexone conjugate lot BB-301, serum naltrexone by ELISA; details: oral capsule; for Serum concentration of individual rats: 3.6 mg naltrexone (12.9 mg conjugate BB-301), Rat #1-#5
[2] = In vivo performance of polyserine-naltrexone conjugate lot BB-272, serum naltrexone by ELISA; details: for Serum concentration of individual rats: 3.6 mg naltrexone (12 mg conjugate BB-272), Rat #1-#4
Description: No excipients were added to the capsules.

[3] = system: pancreatin; details: pig, 24 h, pH 7.5
[4] = target: pepsin (Sus scrofa, UniProt P00791); details: pig, 4 h, pH 1.2
pepsin, sequence (P00791 60-385): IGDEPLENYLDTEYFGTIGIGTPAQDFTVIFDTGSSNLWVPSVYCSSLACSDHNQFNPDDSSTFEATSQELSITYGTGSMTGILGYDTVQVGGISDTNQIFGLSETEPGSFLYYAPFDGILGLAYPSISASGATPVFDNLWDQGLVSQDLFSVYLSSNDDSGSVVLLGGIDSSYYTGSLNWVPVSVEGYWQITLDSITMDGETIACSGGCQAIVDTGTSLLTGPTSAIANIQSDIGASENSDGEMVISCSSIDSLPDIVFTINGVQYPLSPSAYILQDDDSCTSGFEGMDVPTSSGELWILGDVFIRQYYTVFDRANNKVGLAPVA

[5] = system: protease (type XIV, pronase); details: Streptomyces griseus, 24 h, pH 8.4
[6] = after oral administration; cited from earlier work
[7] = in vivo; details: male, Sprague-Dawley, rat, plasma, po
[8] = In vivo performance of polyglutamic acid-AZT conjugate lot TM-113, plasma AZT by ELISA; set-up: species or system Sprague-Dawley rats; details: for Plasma concentration of individual rats: Rat #1-#5
Description: […]. Polyglutarnic acid-AZT conjugate was given to five rats at a dose containing 15 mg/kg of AZT.

[9] = female, Sprague Dawley, rat, in vivo, po
[10] = male, Sprague Dawley, rat, in vivo, po, 3.6 mg
[11] = male, Sprague-Dawley, rat, plasma, po, 15 mg/kg

SMILES: O=C1CC[C@@]2(O)[C@H]3Cc4ccc(O)c5c4[C@@]2(CCN3CC2CC2)[C@H]1O5 [Naltrexone]
- Serum concentration of individual rats ([1]; 0.5 hours): 39 ng/mL and 141 ng/mL and 128 ng/mL and 126 ng/mL and 142 ng/mL
- Serum concentration of individual rats ([1]; 3 hours): 91 ng/mL and 62 ng/mL and 44 ng/mL and 30 ng/mL and 46 ng/mL
- Serum concentration of individual rats ([1]; 5 hours): 45 ng/mL and 193 ng/mL and 16 ng/mL and 8 ng/mL and 19 ng/mL
- Serum concentration of individual rats ([1]; 8 hours): 19 ng/mL and 6 ng/mL and 2 ng/mL and 5 ng/mL and 4 ng/mL
- Serum concentration of individual rats ([1]; 12 hours): 3 ng/mL (2×) and 1 ng/mL and 2 ng/mL (2×)
- Serum concentration of individual rats ([1]; 15 hours): 4 ng/mL and 1 ng/mL (2×) and 2 ng/mL (2×)
- Serum concentration of individual rats ([1]; 24 hours): 2 ng/mL (2×) and 1 ng/mL (2×) and 3 ng/mL
- time at which naltrexone serum levels spiked ([1]; equal dose, lot BB-301): 0.5 h
- time for which serum levels of naltrexone remained elevated ([1]; equal dose, lot BB-301): < 8 h
- concentration at 2 h [2, 10]: 46 ng/mL
- concentration at 4 h [2, 10]: 11 ng/mL
- concentration at 6 h [2, 10]: 9 ng/mL
- concentration at 9 h [2, 10]: 3 ng/mL
- Serum concentration of individual rats ([2]; oral capsule, 2 hours): 33 ng/mL and 91 ng/mL and 37 ng/mL and 22 ng/mL
- Serum concentration of individual rats ([2]; oral capsule, 4 hours): 6 ng/mL and 25 ng/mL and 12 ng/mL and 3 ng/mL
- Serum concentration of individual rats ([2]; oral capsule, 6 hours): 13 ng/mL and 10 ng/mL and 8 ng/mL and 6 ng/mL
- Serum concentration of individual rats ([2]; oral capsule, 9 hours): 3 ng/mL and 6 ng/mL and 2 ng/mL and 1 ng/mL
- Serum concentration of individual rats ([2]; oral capsule, 12 hours): 2 ng/mL (2×) and 1 ng/mL
- Mean serum concentration +/- SD ([2]; oral capsule, 3.6 mg naltrexone, lot BB-272, 12 hours): 1 ± 1 ng/mL
- time at which serum levels spiked ([2]; oral capsule, lot BB-272, 2 hours was the first measurement): 2 h

SMILES: Cc1ncc([N+](=O)[O-])n1CCO [Metronidazole]
- Intestine (simulator, release of active agent from peptide conjugate) [3]: 64.30%
- Stomach (simulator, release of active agent from peptide conjugate) [4]: 20.20%
- Pronase (release of active agent from peptide conjugate) [5]: 28.90%

SMILES: CC1OC(OC2C(O)CC(OC3C(O)CC(O[C@H]4CCC5(C)C(CCC6[C@@H]5CC(O)C5(C)[C@@H](C7=CC(=O)OC7)CCC65O)C4)OC3C)OC2C)CC(O)C1O (stereo partly drawn) [Digoxin, digoxin]
- time until an effect is evident [6]: 1 to 2 h

SMILES: Cc1ccc(C)c(OCCCC(C)(C)C(=O)O)c1 [Gemfibrozil, 5-(2,5-dimethylphenoxy)-2,2-dimethylpentanoic acid]
- Intestine (simulator, release of active agent from peptide conjugate) [3]: 3.60%
- Stomach (simulator, release of active agent from peptide conjugate) [4]: 0%
- Pronase (release of active agent from peptide conjugate) [5]: 2%

SMILES: Cc1cn([C@H]2C[C@H](N=[N+]=[N-])[C@@H](CO)O2)c(=O)[nH]c1=O [AZT, 3′-azido-3′-deoxythymidine]
- Tmax [7]: 30 min
- AUC(0-t) [8, 11]: 4040 ng·h/mL
- Cmax [8, 11]: 2390 ng/mL
- Tmax [8, 11]: 30 min
- concentration at 0 h ([8]; male, Sprague-Dawley, rat, plasma, po, 15 mg/kg, 15 mg/kg of AZT, lot TM-113, 0 hours): 7 ng/mL
- concentration at 0.5 h ([8]; male, Sprague-Dawley, rat, plasma, po, 15 mg/kg, 15 mg/kg of AZT, lot TM-113, 0.5 hours): 2390 ng/mL
- concentration at 3 h ([8]; male, Sprague-Dawley, rat, plasma, po, 15 mg/kg, 15 mg/kg of AZT, lot TM-113, 3 hours): 223 ng/mL
- concentration at 5 h ([8]; male, Sprague-Dawley, rat, plasma, po, 15 mg/kg, 15 mg/kg of AZT, lot TM-113, 5 hours): 49 ng/mL
- concentration at 8 h ([8]; male, Sprague-Dawley, rat, plasma, po, 15 mg/kg, 15 mg/kg of AZT, lot TM-113, 8 hours): 11 ng/mL
- concentration at 12 h ([8]; male, Sprague-Dawley, rat, plasma, po, 15 mg/kg, 15 mg/kg of AZT, lot TM-113, 12 hours): 36 ng/mL
- concentration at 24 h ([8]; male, Sprague-Dawley, rat, plasma, po, 15 mg/kg, 15 mg/kg of AZT, lot TM-113, 24 hours): 8 ng/mL
- time at which AZT plasma levels spiked ([8]; oral, 15 mg/kg of AZT): 0.5 h
- time for which plasma levels of AZT remained elevated ([8]; oral, 15 mg/kg of AZT, lot TM-113): < 3 h
- Plasma concentration of individual rats ([8]; oral, 15 mg/kg of AZT, lot TM-113, 0 hours, 15 mg/kg): 6 ng/mL and 4 ng/mL and 2 ng/mL and 9 ng/mL and 14 ng/mL
- Plasma concentration of individual rats ([8]; oral, 15 mg/kg of AZT, lot TM-113, 0.5 hours, 15 mg/kg): 4520 ng/mL and 2108 ng/mL and 2657 ng/mL and 1978 ng/mL and 690 ng/mL
- Plasma concentration of individual rats ([8]; oral, 15 mg/kg of AZT, lot TM-113, 3 hours, 15 mg/kg): 598 ng/mL and 132 ng/mL and 200 ng/mL and 94 ng/mL and 93 ng/mL
- Plasma concentration of individual rats ([8]; oral, 15 mg/kg of AZT, lot TM-113, 5 hours, 15 mg/kg): 79 ng/mL and 25 ng/mL and 78 ng/mL and 26 ng/mL and 39 ng/mL
- Plasma concentration of individual rats ([8]; oral, 15 mg/kg of AZT, lot TM-113, 8 hours, 15 mg/kg): 16 ng/mL and 18 ng/mL and 12 ng/mL and 4 ng/mL and 5 ng/mL
- Plasma concentration of individual rats ([8]; oral, 15 mg/kg of AZT, lot TM-113, 12 hours, 15 mg/kg): 101 ng/mL and 38 ng/mL and 28 ng/mL and 2 ng/mL and 6 ng/mL
- Plasma concentration of individual rats ([8]; oral, 15 mg/kg of AZT, lot TM-113, 24 hours, 15 mg/kg): 13 ng/mL and 12 ng/mL and 4 ng/mL and 8 ng/mL and 3 ng/mL

SMILES: NS(=O)(=O)c1cc(C(=O)O)c(NCc2ccco2)cc1Cl [Furosemide]
- 9 hour serum level as percent of its 3 hour level [9]: 59.8%

SMILES: Nc1ccc(O)c(C(=O)O)c1 [Mesalamine, 5-amino-2-hydroxybenzoic acid]
- Intestine (simulator, release of active agent from peptide conjugate) [3]: 10%
- Stomach (simulator, release of active agent from peptide conjugate) [4]: 11%
- Pronase (release of active agent from peptide conjugate) [5]: 46%

SMILES: CCN(CC)CCNC(=O)c1cc(Cl)c(N)cc1OC [Metoclopramide]
- Intestine (simulator, release of active agent from peptide conjugate) [3]: 95.20%
- Stomach (simulator, release of active agent from peptide conjugate) [4]: 0%
- Pronase (release of active agent from peptide conjugate) [5]: 6.50%
